One assay addresses T1, HCV NS5B RdRp (Hepatitis C virus genotype 1b, UniProt Q9WMX2).
T1 construct: The protein was expressed with an 18 amino acid C-terminal truncation to enhance the solubility; made in house; host or cells: E. coli BL21(DE3)
The experiment in a line: HCV NS5B RdRp enzyme assay. In kind it is biochemical. The following applies: HCV NS5B genotype 1b, standard or modified RdRp assay not given. As for the experimental part: HCV NS5B RdRp cloning, expression, and purification. The cDNA encoding the NS5B protein of HCV, genotype 1b, was cloned into the pET21a expression vector. The protein was expressed with an 18 amino acid C-terminal truncation to enhance the solubility. The E. coli competent cell line BL21(DE3) was used for expression of the protein. Cultures were grown at 37° C. for ˜4 hours until the cultures reached an optical density of 2.0 at 600 nm. The cultures were cooled to 20° C. and induced with 1 mM […]. Fresh ampicillin was added to a final concentration of 50 μg/ml and the cells were grown overnight at 20° C.
Cell pellets (3 L) were lysed for purification to yield 15-24 mgs of purified NS5B. The lysis buffer consisted of 20 mM Tris-HCl, pH 7.4, 500 mM NaCl, 0.5% triton X-100, 1 mM DTT, 1 mM EDTA, 20% glycerol, 0.5 mg/ml lysozyme, 10 mM MgCl2, 15 ug/ml deoxyribonuclease I, and Complete TM protease inhibitor tablets (Roche). After addition of the lysis buffer, frozen cell pellets were resuspended using a tissue homogenizer. To reduce the viscosity of the sample, aliquots of the lysate were sonicated on ice using a microtip attached to a Branson sonicator. The sonicated lysate was centrifuged at 100,000×g for 1 hr at 4° C. and filtered through a 0.2 μm filter unit (Corning).
The protein was purified using two sequential chromatography steps: Heparin sepharose CL-6B and polyU sepharose 4B (Pharmacia). The chromatography buffers were identical to the lysis buffer but contained no lysozyme, deoxyribonuclease I, MgCl2 or protease inhibitor and the NaCl concentration of the buffer was adjusted according to the requirements for charging the protein onto the column. Each column was eluted with a NaCl gradient which varied in length from 5-50 column volumes depending on the column type. After the final chromatography step, the resulting purity of the enzyme is >90% based on SDS-PAGE analysis. The enzyme was aliquoted and stored at −80° C.
Standard HCV NS5B RdRp enzyme assay. HCV RdRp genotype 1b assays were run in a final volume of 60 μl in 96 well plates (Corning 3600). The assay buffer is composed of 20 mM Hepes, pH 7.5, 2.5 mM KCl, 2.5 mM MgCl2, 1 mM DTT, 1.6 U RNAse inhibitor (Promega N2515), 0.01 mg/ml BSA (Sigma B6917), and 2% glycerol. All compounds were serially diluted (3-fold) in DMSO and diluted further in water such that the final concentration of DMSO in the assay was 2%. HCV RdRp genotype 1b enzyme was used at a final concentration of 28 nM. A polyA template was used at 6 nM, and a biotinylated oligo-dT12 primer was used at 180 nM final concentration. Template was obtained commercially (Amersham 27-4110). Biotinylated primer was prepared by Sigma Genosys. 3H-UTP was used at (0.29 μM total UTP). Reactions were initiated by the addition of enzyme, incubated at 30° C. for 60 min, and stopped by adding 25 μl of 50 mM EDTA containing SPA beads (4 μg/μl, Amersham RPNQ 0007). Plates were read on a Packard Top Count NXT after >1 hr incubation at room temperature.
Modified HCV NS5B RdRp enzyme assay. A modified enzyme assay was performed essentially as described for the standard enzyme assay except for the following: The biotinylated oligo dT12 primer was precaptured on streptavidin-coated SPA beads by mixing primer and beads in assay buffer and incubating at room temperature for one hour. Unbound primer was removed after centrifugation. The primer-bound beads were resuspended in 20 mM Hepes buffer, pH 7.5 and used in the assay at final concentrations of 20 nM primer and […] beads. Order of addition in the assay: enzyme (1.75 nM) was added to diluted compound followed by the addition of a mixture of template (0.36 nM), 3H-UTP (0.6 μCi, 0.29 μM), and primer-bound beads, to initiate the reaction; concentrations given are final. Reactions were allowed to proceed for 4 hours at 30° C.
IC50 values for compounds were determined using seven different [I]. […]

A further assay deals with HCV replicon cells. The experiment in a line: HCV replicon FRET / luciferase assay. The class given is cell-based. To be noted: Hepatitis C virus, 50% reduction in FRET or luciferase activity. As for the experimental part:
FRET Assay Preparation. The HCV FRET screening assay was performed in 96-well cell culture plates. The FRET peptide (Anaspec, Inc.) (Taliani et al., Anal. Biochem. 1996, 240, 60-67) contains a fluorescence donor, EDANS, near one end of the peptide and an acceptor, DABCYL, near the other end. The fluorescence of the peptide is quenched by […] resonance energy transfer (RET) between the donor and the acceptor, but as the NS3 protease cleaves the peptide the products are released from RET quenching and the fluorescence of the donor becomes apparent. The assay reagent was made as follows: 5× cell Luciferase cell culture lysis reagent from Promega (#E153A) diluted to 1× with dH2O, NaCl added to 150 mM final, the FRET peptide diluted to 20 μM final from a 2 mM stock.
To prepare plates, HCV replicon cells, with or without a Renilla luciferase reporter gene, were trypsinized and plated in a 96-well plate with titrated test compounds added in columns 3 through 12; columns 1 and 2 contained a control compound (HCV control inhibitor), and the bottom row contained cells with DMSO only. The plates were then placed in a CO2 incubator at 37° C.
Assays. Subsequent to addition of the test compounds described above (FRET Assay Preparation), at various times the plate was removed and Alamar blue solution (Trek Diagnostics, #00-100) was added to measure cellular toxicity. After reading in a Cytoflour 4000 instrument (PE Biosystems), plates were rinsed with PBS and then used for FRET assay by the addition of 30 ul of the FRET peptide assay reagent described above (FRET Assay Preparation) per well. The plate was then placed into the Cytoflour 4000 instrument which had been set to 340 excite/490 emission, automatic mode for up to 20 cycles and the plate read in a kinetic mode. Typically, the signal to noise using an endpoint analysis after the reads was at least three-fold. Alternatively, after Alamar blue reading, plates were rinsed with PBS, then used for luciferase assay using the Promega Dual-Glo Luciferase Assay System or the Promega EnduRen Live Cell Substrate assay.
Compound analysis was performed by quantification of the relative HCV replicon inhibition and the relative cytotoxicity values. To calculate cytoxicity values, the average Alamar Blue fluorescence signals from the control wells were set as 100% non-toxic. The individual signals in each of the compound test wells were then divided by the average control signal and multiplied by 100% to determine […]. To calculate the HCV replicon inhibition values, an average background value was obtained from the two wells containing the highest amount of HCV control inhibitor at the end of the assay period. These numbers were similar to those obtained from naïve Huh-7 cells. The background numbers were then subtracted from the average signal obtained from the control wells and this number was used as 100% activity. The individual signals in each of the compound test wells were then divided by the averaged control values after background subtraction and multiplied by 100% to determine percent activity. EC50 values were calculated as the concentration which caused a 50% reduction in FRET or luciferase activity. The two numbers generated for the compound plate, percent cytoxicity and percent activity, were used to determine compounds of interest for further analysis.

The record followed here is patent US8178523B2, “Compounds for the treatment of hepatitis C” (Bristol-Myers Squibb Company, priority 2008, dated 2012).

Some results are limits rather than exact numbers.

T1 sequence (Q9WMX2 2420-2992): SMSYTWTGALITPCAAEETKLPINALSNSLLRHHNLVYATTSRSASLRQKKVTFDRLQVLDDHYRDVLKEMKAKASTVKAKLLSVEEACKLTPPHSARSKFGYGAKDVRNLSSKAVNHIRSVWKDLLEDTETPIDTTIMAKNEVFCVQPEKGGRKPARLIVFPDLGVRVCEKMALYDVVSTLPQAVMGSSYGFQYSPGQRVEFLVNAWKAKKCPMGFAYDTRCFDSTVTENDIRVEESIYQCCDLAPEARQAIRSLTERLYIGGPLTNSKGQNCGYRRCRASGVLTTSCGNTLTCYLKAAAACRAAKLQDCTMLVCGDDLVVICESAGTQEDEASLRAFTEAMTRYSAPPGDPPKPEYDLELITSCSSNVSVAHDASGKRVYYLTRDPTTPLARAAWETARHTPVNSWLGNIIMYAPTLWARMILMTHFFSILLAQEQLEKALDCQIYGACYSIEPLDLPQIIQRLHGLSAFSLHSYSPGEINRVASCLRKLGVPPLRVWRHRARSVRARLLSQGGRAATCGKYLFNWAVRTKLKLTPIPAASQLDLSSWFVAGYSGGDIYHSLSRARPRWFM

A word on the IC50: it is the point on the concentration scale where inhibition reaches its midpoint. Read a low IC50 as inhibition by little substance. For orientation: EC50 means the concentration giving half of the maximal effect. A higher EC50 goes with lower potency in that assay. Regarding `COc1ccc2c(c1)C1CC1(C(=O)N1CCC(c3cc4ccccc4o3)CC1)Cn1c-2c(C2CCCCC2)c2ccc(C(=O)NS(=O)(=O)C(C)C)cc21` (stereo not drawn), the IC50 on HCV NS5B RdRp (class symbols) fell in the range of 0.002 to 0.5 µM. In addition, the EC50 with HCV replicon cells (class symbols) was above 0.5 µM.
Consider `COc1ccc2c(c1)C1CC1(C(=O)N1CCCCC1c1nccs1)Cn1c-2c(C2CCCCC2)c2ccc(C(=O)NS(=O)(=O)N(C)C)cc21` (stereo not drawn), for which the IC50 against HCV NS5B RdRp (numeric values) is 0.07 µM. Also, the EC50 in the assay with HCV replicon cells (numeric values) amounted to 0.29 µM.
In the case of `COc1ccc2c(c1)C1CC1(C(=O)N1CCC(c3nc(C)no3)CC1)Cn1c-2c(C2CCCCC2)c2ccc(C(=O)NS(=O)(=O)N(C)C)cc21` (stereo not drawn), at HCV NS5B RdRp (numeric values), the IC50 turned out to be 0.03 µM. This compound also returned an EC50 with HCV replicon cells (numeric values) of 0.09 µM.
In turn, `COc1ccc2c(c1)C1CC1(C(=O)N1CCC(c3nnc(C)o3)CC1)Cn1c-2c(C2CCCCC2)c2ccc(C(=O)NS(=O)(=O)N(C)C)cc21` (stereo not drawn) yielded an IC50 against HCV NS5B RdRp (numeric values) of 0.02 µM. Further, the concentration giving a half-maximal response (EC50) in the assay on HCV replicon cells (numeric values) worked out at 0.05 µM.
For `COc1ccc2c(c1)C=C(C(=O)N1CCCCC1c1nccs1)Cn1c-2c(C2CCCCC2)c2ccc(C(=O)NS(=O)(=O)N(C)C)cc21` (stereo not drawn), at HCV NS5B RdRp (numeric values), 0.1 µM corresponded to half-maximal inhibition (IC50). In the assay on HCV replicon cells (numeric values), the half-maximal effective concentration (EC50) was 0.46 µM.
Take `COc1ccc2c(c1)C1CC1(C(=O)N1CCC(c3nc(C)no3)CC1)Cn1c-2c(C2CCCCC2)c2ccc(C(=O)NS(=O)(=O)C(C)C)cc21` (stereo not drawn): on HCV NS5B RdRp (numeric values), the IC50 worked out at 0.03 µM. Further, the response in the assay with HCV replicon cells (numeric values) was half-maximal at 0.1 µM (EC50).
